Measured values taken from the supplement of paper PMC11208160.

Experiment: recombinant UMI read abundance after kanamycin selection (control-corrected) (log10(CPM+1)); higher = more efficient recombination; extreme values may be limits of the assay; sequences stand for … in AGTGCAGAGAAAATCGGCCAGTTTTCTCTGCCTGCAGTCCGCATGCCGTGGGACCCCTTGGGTTCTAACCTGTTGCCTAGATTTATGCAGCGGACTGCCTTTCTCCCAAAGTGATAAACCGG…AGGTTGGTTTCACT; site = the 11-nt donor
Protocol: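 Pooled E. coli donor-specificity screen for the IS621 bridge recombinase. Each library member carries a reprogrammed 11-nt donor and a full-length LE bridge RNA expressed in cis from the natural promoter, with a paired donor-binding loop (8-nt LDG + 4-nt RDG) and a target-binding loop fixed to T5. It is co-electroporated with a T5 target plasmid; recombinase is induced with 0.07 mM IPTG and recombinants are selected on kanamycin. UMIs are counted as CPM, averaged over two biological replicates and corrected by the unselected control. Molecule = full bridge RNA written as DNA, built from the T5 scaffold: LDG = donor specificity nt 1-8, RDG = reverse complement of nt 8-11.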
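Further: IS621 bridge recombinase in Escherichia coli cells against a fixed T5 target plasmid.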

Row | Sequence | recombinant UMI read abundance (log10)
1 | AAAACTTCATGGACCGGTTTTCCCGGTAATCCGTATTTGTC (site AAAACTTCTGA) | 0
2 | AAAAGTCCATGGACCGGTTTTCCCGGTAATCCGTATTTGTA (site AAAAGTCCTTA) | 0.66
3 | AAAAGTCCATGGACCGGTTTTCCCGGTAATCCGTATTTGTA (site CAAAGTCCTTA) | 0.48
4 | AAAAGTCCATGGACCGGTTTTCCCGGTAATCCGTATTTGTA (site GAAAGTCCTTA) | 0.273
5 | AAAAGTCCATGGACCGGTTTTCCCGGTAATCCGTATTTGTA (site TAAAGTCCTTA) | 1.12
6 | AAACATCCATGGACCGGTTTTCCCGGTAATCCGTATTTGAC (site AAACATCCTGT) | 1.26
7 | AAACATCCATGGACCGGTTTTCCCGGTAATCCGTATTTGAC (site ACACATCCTGT) | 0
8 | AAACATCCATGGACCGGTTTTCCCGGTAATCCGTATTTGAC (site AGACATCCTGT) | 0
9 | AAACATCCATGGACCGGTTTTCCCGGTAATCCGTATTTGAC (site ATACATCCTGT) | 0
10 | AAACGTCCATGGACCGGTTTTCCCGGTAATCCGTATTTGTT (site AAACGTCCTAA) | 0.525
11 | AAACTTACATGGACCGGTTTTCCCGGTAATCCGTATTTGCA (site AAACTTACTTG) | 1.52
12 | AAACTTGCATGGACCGGTTTTCCCGGTAATCCGTATTTGGC (site AAACTTGCTGC) | 0
13 | AAAGAAGCATGGACCGGTTTTCCCGGTAATCCGTATTTGGA (site AAAGAAGCTTC) | 1.94
14 | AAAGAGGCATGGACCGGTTTTCCCGGTAATCCGTATTTGCA (site AAAGAGGCTTG) | 2.9
15 | AAAGATCCATGGACCGGTTTTCCCGGTAATCCGTATTTGCC (site AAAGATCCTGG) | 0
16 | AAAGCAGCATGGACCGGTTTTCCCGGTAATCCGTATTTGCT (site AAAGCAGCTAG) | 1.82
17 | AAAGCAGCATGGACCGGTTTTCCCGGTAATCCGTATTTGCT (site CAAGCAGCTAG) | 1.5
18 | AAAGCAGCATGGACCGGTTTTCCCGGTAATCCGTATTTGCT (site GAAGCAGCTAG) | 0.198
19 | AAAGCAGCATGGACCGGTTTTCCCGGTAATCCGTATTTGCT (site TAAGCAGCTAG) | 1.67
20 | AAAGCCACATGGACCGGTTTTCCCGGTAATCCGTATTTGTA (site AAAGCCACTTA) | 1.82
21 | AAAGGTACATGGACCGGTTTTCCCGGTAATCCGTATTTGAG (site AAAGGTACTCT) | 2.1
22 | AAAGGTTCATGGACCGGTTTTCCCGGTAATCCGTATTTGGG (site AAAGGTTCTCC) | 1.05
23 | AAAGTAACATGGACCGGTTTTCCCGGTAATCCGTATTTGCA (site AAAGTAACTTG) | 2.88
24 | AAAGTAACATGGACCGGTTTTCCCGGTAATCCGTATTTGCA (site ACAGTATCTTG) | 2.56

Row | Sequence | recombinant UMI read abundance (log10)
25 | AAAGTACCATGGACCGGTTTTCCCGGTAATCCGTATTTGCG (site AAAGTACCTCG) | 0.0963
26 | AAAGTCTCATGGACCGGTTTTCCCGGTAATCCGTATTTGAT (site AAAGTCTCTAT) | 3.17
27 | AAAGTCTCATGGACCGGTTTTCCCGGTAATCCGTATTTGCA (site AAAGTCTCTTG) | 3.16
28 | AAAGTCTCATGGACCGGTTTTCCCGGTAATCCGTATTTGCA (site ACAGTATCTTG) | 1.99
29 | AAATAACCATGGACCGGTTTTCCCGGTAATCCGTATTTGAA (site AAATAACCTTT) | 0
30 | AAATAAGCATGGACCGGTTTTCCCGGTAATCCGTATTTGGG (site AAATAAGCTCC) | 0.434
31 | AAATCCGCATGGACCGGTTTTCCCGGTAATCCGTATTTGTC (site AAATCCGCTGA) | 2.33
32 | AAATGGGCATGGACCGGTTTTCCCGGTAATCCGTATTTGCT (site AAATGGGCTAG) | 2.28
33 | AAATGTTCATGGACCGGTTTTCCCGGTAATCCGTATTTGCC (site AAATGTTCTGG) | 2.2
34 | AAATTCCCATGGACCGGTTTTCCCGGTAATCCGTATTTGCT (site AAATTCCCTAG) | 1.37
35 | AAATTCCCATGGACCGGTTTTCCCGGTAATCCGTATTTGCT (site CAATTCCCTAG) | 0.647
36 | AAATTCCCATGGACCGGTTTTCCCGGTAATCCGTATTTGCT (site GAATTCCCTAG) | 0.544
37 | AAATTCCCATGGACCGGTTTTCCCGGTAATCCGTATTTGCT (site TAATTCCCTAG) | 1.08
38 | AAATTCCCATGGACCGGTTTTCCCGGTAATCCGTATTTGGT (site AAATTCCCTAC) | 0
39 | AACACACCATGGACCGGTTTTCCCGGTAATCCGTATTTGAC (site AACACACCTGT) | 0
40 | AACACCTCATGGACCGGTTTTCCCGGTAATCCGTATTTGAT (site AACACCTCTAT) | 1.76
41 | AACAGAGCATGGACCGGTTTTCCCGGTAATCCGTATTTGAT (site AACAGAGCTAT) | 2.02
42 | AACCAAACATGGACCGGTTTTCCCGGTAATCCGTATTTGTC (site AACCAAACTGA) | 0
43 | AACCCACCATGGACCGGTTTTCCCGGTAATCCGTATTTGGA (site AACCCACCTTC) | 0.0204
44 | AACCGCCCATGGACCGGTTTTCCCGGTAATCCGTATTTGAT (site AACCGACCTAT) | 0.0035
45 | AACCGCCCATGGACCGGTTTTCCCGGTAATCCGTATTTGAT (site AACCGCCCTAT) | 0.00906
46 | AACCGCCCATGGACCGGTTTTCCCGGTAATCCGTATTTGAT (site AACCGGCCTAT) | 0.00971
47 | AACCGCCCATGGACCGGTTTTCCCGGTAATCCGTATTTGAT (site AACCGTCCTAT) | 0.0447
48 | AACCGGCCATGGACCGGTTTTCCCGGTAATCCGTATTTGAT (site AACCGACCTAT) | 0

Row | Sequence | recombinant UMI read abundance (log10)
49 | AACCGGCCATGGACCGGTTTTCCCGGTAATCCGTATTTGAT (site AACCGCCCTAT) | 0.014
50 | AACCGGCCATGGACCGGTTTTCCCGGTAATCCGTATTTGAT (site AACCGGCCTAT) | 0.016
51 | AACCGGCCATGGACCGGTTTTCCCGGTAATCCGTATTTGAT (site AACCGTCCTAT) | 0.0213
52 | AACCGGTCATGGACCGGTTTTCCCGGTAATCCGTATTTGGA (site AACCGGTCTTC) | 0.422
53 | AACCGTCCATGGACCGGTTTTCCCGGTAATCCGTATTTGAA (site AACCGTCCTAT) | 0.0196
54 | AACCGTCCATGGACCGGTTTTCCCGGTAATCCGTATTTGAA (site AACCGTCCTCT) | 0.0191
55 | AACCGTCCATGGACCGGTTTTCCCGGTAATCCGTATTTGAA (site AACCGTCCTGT) | 0
56 | AACCGTCCATGGACCGGTTTTCCCGGTAATCCGTATTTGAA (site AACCGTCCTTT) | 0.0144
57 | AACCGTCCATGGACCGGTTTTCCCGGTAATCCGTATTTGCT (site AACCGTCCTAA) | 0.0135
58 | AACCGTCCATGGACCGGTTTTCCCGGTAATCCGTATTTGCT (site AACCGTCCTAC) | 0.00247
59 | AACCGTCCATGGACCGGTTTTCCCGGTAATCCGTATTTGCT (site AACCGTCCTAG) | 0.593
60 | AACCGTCCATGGACCGGTTTTCCCGGTAATCCGTATTTGCT (site AACCGTCCTAT) | 0.0146
61 | AACCGTCCATGGACCGGTTTTCCCGGTAATCCGTATTTGGT (site AACCGTCCTAA) | 0.0129
62 | AACCGTCCATGGACCGGTTTTCCCGGTAATCCGTATTTGGT (site AACCGTCCTAC) | 0.0164
63 | AACCGTCCATGGACCGGTTTTCCCGGTAATCCGTATTTGGT (site AACCGTCCTAG) | 0.00368
64 | AACCGTCCATGGACCGGTTTTCCCGGTAATCCGTATTTGGT (site AACCGTCCTAT) | 0.00572
65 | AACCTTCCATGGACCGGTTTTCCCGGTAATCCGTATTTGAA (site AACCTTCCTTT) | 0.0147
66 | AACGACGCATGGACCGGTTTTCCCGGTAATCCGTATTTGTA (site AACGACGCTTA) | 1.99
67 | AACGAGCCATGGACCGGTTTTCCCGGTAATCCGTATTTGAA (site AACGAGCCTTT) | 0.157
68 | AACGCAACATGGACCGGTTTTCCCGGTAATCCGTATTTGTT (site AACGCAACTAA) | 0.495
69 | AACGCTGCATGGACCGGTTTTCCCGGTAATCCGTATTTGAA (site AACGCTGCTTT) | 1.06
70 | AACGGAACATGGACCGGTTTTCCCGGTAATCCGTATTTGAT (site AACGGAACTAT) | 2.33
71 | AACGGTCCATGGACCGGTTTTCCCGGTAATCCGTATTTGGC (site AACGGTCCTGC) | 0
72 | AACGTTTCATGGACCGGTTTTCCCGGTAATCCGTATTTGCT (site AACGTTTCTAG) | 2.48
